Measurements: US6410537B1, “Compositions having neuroprotective and analgesic activity” (The United States of America as represented by the …, priority 1994, dated 2002)

How the values were obtained:
neurons = experiment: Antagonism of glutamate neurotoxic calcium flux (intracellular calcium response type); assay type: cell-based
Experimental: (§1) One particularly valuable enantiomer of the invention is the (+)-8 compound designated SNC80. […] To obtain better understanding of the benefits obtained by use of the compounds of the invention, beneficial effects of the compound were assessed in a model for evaluation of CNS excito-toxicity in an in vitro neuronal culture model. The neurotoxicity/neuroprotection was assessed 18 hours after exposure to the excitotoxin glutamate.

neuronal cell cultures = experiment: Neuroprotection against glutamate toxicity in neuronal cell cultures, measured by LDH release; assay type: cell-based; conditions: for LDH release: mean ± s.e., 18 hours after glutamate exposure
Experimental: as §1
The neuroprotective effect of the SNC80 against glutamate toxicity in neuronal cell cultures was determined using a standard method of quantifying neuronal damage by measuring LDH release, since LDH is a […] enzyme released from damaged neurons into the culture media when neuronal cells are injured. One way in which neuronal cells may be damaged is by exposure to glutamate, a common agent used to induce neuronal damage. In the instant case, the damaging effect of gluamate on these cultures as shown to be overcome by exposure to an active agent of the invention.

[1] = Convulsive activity after intracerebral ventricular dosing; assay type: in vivo; conditions: rats; intracerebral ventricular dosages up to 800 μg
[2] = Glutamate (80 μM) + SNC80 20 μM
[3] = Glutamate (80 μM) + SNC80 40 μM

SMILES: C=CCN1C[C@H](C)N([C@H](c2ccc(C(=O)N(CC)CC)cc2)c2cccc(OC)c2)C[C@H]1C [SNC80]
- Response Type biphasic (number of neurons) (neurons; Glutamate + 50 μM, 10 neurons): 6
- Response Type sustained (neurotoxic) (number of neurons) (neurons; Glutamate + 50 μM, 10 neurons): 1
- Response Type transient (number of neurons) (neurons; Glutamate + 50 μM, 10 neurons): 3
- Response Type biphasic (number of neurons) (neurons; Glutamate + 100 μM, 21 neurons): 17
- Response Type sustained (neurotoxic) (number of neurons) (neurons; Glutamate + 100 μM, 21 neurons): 1
- Response Type transient (number of neurons) (neurons; Glutamate + 100 μM, 21 neurons): 3
- Intracellular Ca++ concentration as indicator of glutamate-induced neuronal injury (neurons; glutamate-treated neurons): beneficial shift in the intracellular Ca^++ concentration
- Neuroprotection (LDH measurements and morphological evaluation) (neuronal cell cultures; 18 hours after exposure to glutamate, compared to glutamate alone): concentration-dependent neuroprotection
- % neuroprotection (neuronal cell cultures; Glutamate (80 μM) + SNC80 5 μM): 17%
- LDH release (neuronal cell cultures; Glutamate (80 μM) + SNC80 5 μM): 98.6 ± 4.5 Units ML
- % neuroprotection (neuronal cell cultures; [2]): 43%
- LDH release (neuronal cell cultures; [2]): 91.0 ± 2.0 Units ML
- % neuroprotection (neuronal cell cultures; [3]): 63%
- LDH release (neuronal cell cultures; [3]): 84.7 ± 3.4 Units ML
- Convulsive activity [1]: failed to elicit convulsive activity
